Results from ChEMBL document CHEMBL5360651, “Progress on the Pharmacological Targeting of Janus Pseudokinases” (J Med Chem, 2023).
Values belong to the molecule of their own block, whether it stands above or below them.

Tests used:
[1] = molecular target: Tyrosine-protein kinase JAK2 (Homo sapiens, UniProt O60674, V617F); test: Binding affinity to JAK2 V617F mutant (unknown origin) assessed as dissociation constant
[2] = molecular target: T1, Tyrosine-protein kinase JAK2 (Homo sapiens, UniProt O60674); test: Binding affinity to wild type JAK2 JH2 (unknown origin)
T1 sequence (O60674 whole entry): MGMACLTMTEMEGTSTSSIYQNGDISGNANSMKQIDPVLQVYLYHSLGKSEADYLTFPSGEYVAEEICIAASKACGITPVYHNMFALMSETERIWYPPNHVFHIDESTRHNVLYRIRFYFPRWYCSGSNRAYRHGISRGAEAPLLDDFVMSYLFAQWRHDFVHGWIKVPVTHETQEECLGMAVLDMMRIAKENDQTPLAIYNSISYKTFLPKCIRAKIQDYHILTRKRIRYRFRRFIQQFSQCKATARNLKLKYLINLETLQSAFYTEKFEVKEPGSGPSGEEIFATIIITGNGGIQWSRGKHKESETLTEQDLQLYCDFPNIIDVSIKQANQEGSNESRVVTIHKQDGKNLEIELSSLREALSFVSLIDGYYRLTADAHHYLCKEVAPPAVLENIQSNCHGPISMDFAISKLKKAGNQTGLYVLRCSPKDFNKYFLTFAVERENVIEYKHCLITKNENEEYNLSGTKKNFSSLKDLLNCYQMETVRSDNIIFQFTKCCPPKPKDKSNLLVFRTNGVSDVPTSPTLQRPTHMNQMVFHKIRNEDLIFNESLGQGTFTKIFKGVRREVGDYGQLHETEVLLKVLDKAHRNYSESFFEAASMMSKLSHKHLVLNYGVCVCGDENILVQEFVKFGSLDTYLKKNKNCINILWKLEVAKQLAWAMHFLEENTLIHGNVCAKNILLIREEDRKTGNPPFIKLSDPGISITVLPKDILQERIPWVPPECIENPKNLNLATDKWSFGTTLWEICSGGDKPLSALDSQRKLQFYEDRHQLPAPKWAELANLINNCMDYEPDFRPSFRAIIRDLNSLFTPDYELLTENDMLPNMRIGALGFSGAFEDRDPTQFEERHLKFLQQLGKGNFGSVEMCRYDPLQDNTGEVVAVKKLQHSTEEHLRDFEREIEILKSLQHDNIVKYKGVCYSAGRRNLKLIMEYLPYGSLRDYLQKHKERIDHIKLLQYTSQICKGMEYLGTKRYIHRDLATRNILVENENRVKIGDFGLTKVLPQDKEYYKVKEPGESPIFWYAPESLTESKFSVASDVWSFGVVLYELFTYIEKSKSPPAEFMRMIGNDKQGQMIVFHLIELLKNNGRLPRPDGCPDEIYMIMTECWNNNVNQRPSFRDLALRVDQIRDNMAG

[3] = molecular target: T2, Non-receptor tyrosine-protein kinase TYK2 (Homo sapiens, UniProt P29597); assay type: cell-based, Sf9
T2 sequence (P29597 whole entry): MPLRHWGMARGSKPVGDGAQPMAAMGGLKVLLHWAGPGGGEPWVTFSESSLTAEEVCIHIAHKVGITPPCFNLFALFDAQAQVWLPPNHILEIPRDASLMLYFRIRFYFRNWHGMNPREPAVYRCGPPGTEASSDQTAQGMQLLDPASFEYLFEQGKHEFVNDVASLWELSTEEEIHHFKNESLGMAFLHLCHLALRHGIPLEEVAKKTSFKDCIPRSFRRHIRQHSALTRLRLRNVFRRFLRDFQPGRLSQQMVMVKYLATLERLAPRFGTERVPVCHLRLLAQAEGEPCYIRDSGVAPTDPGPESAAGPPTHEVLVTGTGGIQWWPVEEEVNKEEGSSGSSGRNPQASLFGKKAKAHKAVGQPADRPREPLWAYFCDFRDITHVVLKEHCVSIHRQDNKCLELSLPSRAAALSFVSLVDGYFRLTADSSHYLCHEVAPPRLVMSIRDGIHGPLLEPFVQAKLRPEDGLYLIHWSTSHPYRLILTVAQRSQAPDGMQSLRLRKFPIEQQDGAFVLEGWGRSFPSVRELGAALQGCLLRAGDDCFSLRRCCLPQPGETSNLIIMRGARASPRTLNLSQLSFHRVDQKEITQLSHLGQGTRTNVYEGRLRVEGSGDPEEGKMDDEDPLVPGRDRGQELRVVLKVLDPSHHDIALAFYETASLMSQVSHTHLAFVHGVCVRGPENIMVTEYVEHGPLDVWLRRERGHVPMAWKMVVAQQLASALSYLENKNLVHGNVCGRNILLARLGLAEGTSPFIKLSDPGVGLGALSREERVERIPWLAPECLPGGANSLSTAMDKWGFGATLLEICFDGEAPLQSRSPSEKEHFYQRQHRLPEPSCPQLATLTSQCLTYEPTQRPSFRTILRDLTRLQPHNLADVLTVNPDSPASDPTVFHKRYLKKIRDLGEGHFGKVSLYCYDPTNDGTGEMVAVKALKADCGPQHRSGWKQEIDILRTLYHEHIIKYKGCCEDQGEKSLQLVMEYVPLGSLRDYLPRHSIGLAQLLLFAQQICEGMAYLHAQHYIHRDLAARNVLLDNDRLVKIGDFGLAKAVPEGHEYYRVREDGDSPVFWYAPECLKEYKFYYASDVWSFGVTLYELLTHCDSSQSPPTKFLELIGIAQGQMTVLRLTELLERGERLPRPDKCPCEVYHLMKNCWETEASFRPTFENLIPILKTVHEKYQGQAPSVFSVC

[4] = molecular target: T3, Tyrosine-protein kinase JAK3 (Homo sapiens, UniProt P52333); test: Inhibition of JAK3 signaling pathway in human PBMC cells assessed as reduction of IL-2 induced STAT5 phosphorylation; assay type: cell-based
T3 sequence (P52333 whole entry): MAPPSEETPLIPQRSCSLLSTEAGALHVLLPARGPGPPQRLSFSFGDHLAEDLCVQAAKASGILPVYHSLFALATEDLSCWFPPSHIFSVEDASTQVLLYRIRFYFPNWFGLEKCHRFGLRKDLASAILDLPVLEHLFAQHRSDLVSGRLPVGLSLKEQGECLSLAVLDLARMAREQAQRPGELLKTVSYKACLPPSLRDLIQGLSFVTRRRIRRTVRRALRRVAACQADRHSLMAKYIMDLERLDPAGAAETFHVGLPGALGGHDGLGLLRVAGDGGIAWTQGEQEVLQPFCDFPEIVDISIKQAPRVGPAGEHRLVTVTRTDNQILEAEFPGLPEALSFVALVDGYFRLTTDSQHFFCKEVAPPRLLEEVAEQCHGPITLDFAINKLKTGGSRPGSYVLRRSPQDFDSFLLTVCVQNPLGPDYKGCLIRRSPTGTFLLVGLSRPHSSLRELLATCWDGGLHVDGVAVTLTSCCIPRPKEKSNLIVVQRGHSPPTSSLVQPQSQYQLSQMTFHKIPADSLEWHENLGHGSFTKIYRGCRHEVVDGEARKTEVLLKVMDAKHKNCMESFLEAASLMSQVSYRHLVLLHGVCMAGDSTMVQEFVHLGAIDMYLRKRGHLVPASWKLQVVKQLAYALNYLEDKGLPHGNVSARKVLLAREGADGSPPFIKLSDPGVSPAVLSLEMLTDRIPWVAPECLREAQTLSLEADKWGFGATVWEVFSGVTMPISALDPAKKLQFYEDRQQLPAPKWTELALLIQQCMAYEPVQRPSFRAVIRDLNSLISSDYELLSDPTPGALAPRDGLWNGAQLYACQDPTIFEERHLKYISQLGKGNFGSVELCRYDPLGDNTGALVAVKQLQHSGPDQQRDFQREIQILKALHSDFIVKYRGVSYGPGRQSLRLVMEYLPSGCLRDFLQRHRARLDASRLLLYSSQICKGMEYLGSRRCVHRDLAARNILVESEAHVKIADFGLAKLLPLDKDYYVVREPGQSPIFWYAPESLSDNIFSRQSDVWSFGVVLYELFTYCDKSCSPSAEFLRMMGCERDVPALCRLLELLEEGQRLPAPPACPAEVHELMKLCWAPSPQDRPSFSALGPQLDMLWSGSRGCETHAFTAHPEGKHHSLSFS

[5] = Solubility of compound at pH 6.5; assay type: physicochemical; details: buffer
[6] = Half life in human liver microsomes; assay type: ADME, Microsome
[7] = molecular target: Voltage-gated inwardly rectifying potassium channel KCNH2 (Homo sapiens, UniProt Q12809); test: Inhibition of hERG by fluorescence polarization method; assay type: toxicity
Voltage-gated inwardly rectifying potassium channel KCNH2, sequence (Q12809 whole entry): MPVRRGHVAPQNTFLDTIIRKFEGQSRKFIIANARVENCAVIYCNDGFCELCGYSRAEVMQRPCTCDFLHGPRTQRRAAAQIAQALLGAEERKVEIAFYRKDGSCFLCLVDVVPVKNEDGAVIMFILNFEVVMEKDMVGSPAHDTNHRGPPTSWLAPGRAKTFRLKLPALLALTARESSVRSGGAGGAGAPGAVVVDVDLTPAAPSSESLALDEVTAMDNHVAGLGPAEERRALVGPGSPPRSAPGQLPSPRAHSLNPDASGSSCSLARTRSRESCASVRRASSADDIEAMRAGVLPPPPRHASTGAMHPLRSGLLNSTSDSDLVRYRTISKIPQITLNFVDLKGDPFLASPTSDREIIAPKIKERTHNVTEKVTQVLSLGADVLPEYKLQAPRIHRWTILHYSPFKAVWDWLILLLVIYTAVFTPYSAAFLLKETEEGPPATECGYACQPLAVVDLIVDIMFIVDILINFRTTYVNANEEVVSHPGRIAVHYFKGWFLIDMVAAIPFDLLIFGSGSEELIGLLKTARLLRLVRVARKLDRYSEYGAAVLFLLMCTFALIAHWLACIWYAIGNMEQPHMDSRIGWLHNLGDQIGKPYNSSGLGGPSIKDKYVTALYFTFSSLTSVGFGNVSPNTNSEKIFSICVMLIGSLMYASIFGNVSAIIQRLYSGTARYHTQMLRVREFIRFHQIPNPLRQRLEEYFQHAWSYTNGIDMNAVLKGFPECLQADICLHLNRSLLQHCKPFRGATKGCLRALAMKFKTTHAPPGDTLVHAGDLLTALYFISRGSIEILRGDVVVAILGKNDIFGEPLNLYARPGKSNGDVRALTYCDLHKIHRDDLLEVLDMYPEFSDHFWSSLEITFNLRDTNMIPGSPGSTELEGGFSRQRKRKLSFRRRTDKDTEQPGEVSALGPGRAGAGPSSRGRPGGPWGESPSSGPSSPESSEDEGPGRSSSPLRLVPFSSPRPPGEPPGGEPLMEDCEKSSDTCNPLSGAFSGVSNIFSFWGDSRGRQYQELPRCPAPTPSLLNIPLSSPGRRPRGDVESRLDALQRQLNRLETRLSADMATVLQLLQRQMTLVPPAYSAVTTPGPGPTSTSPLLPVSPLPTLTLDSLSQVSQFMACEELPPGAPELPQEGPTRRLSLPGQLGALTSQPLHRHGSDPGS

[8] = molecular target: T4, Tyrosine-protein kinase JAK1 (Homo sapiens, UniProt P23458)
T4 sequence (P23458 whole entry): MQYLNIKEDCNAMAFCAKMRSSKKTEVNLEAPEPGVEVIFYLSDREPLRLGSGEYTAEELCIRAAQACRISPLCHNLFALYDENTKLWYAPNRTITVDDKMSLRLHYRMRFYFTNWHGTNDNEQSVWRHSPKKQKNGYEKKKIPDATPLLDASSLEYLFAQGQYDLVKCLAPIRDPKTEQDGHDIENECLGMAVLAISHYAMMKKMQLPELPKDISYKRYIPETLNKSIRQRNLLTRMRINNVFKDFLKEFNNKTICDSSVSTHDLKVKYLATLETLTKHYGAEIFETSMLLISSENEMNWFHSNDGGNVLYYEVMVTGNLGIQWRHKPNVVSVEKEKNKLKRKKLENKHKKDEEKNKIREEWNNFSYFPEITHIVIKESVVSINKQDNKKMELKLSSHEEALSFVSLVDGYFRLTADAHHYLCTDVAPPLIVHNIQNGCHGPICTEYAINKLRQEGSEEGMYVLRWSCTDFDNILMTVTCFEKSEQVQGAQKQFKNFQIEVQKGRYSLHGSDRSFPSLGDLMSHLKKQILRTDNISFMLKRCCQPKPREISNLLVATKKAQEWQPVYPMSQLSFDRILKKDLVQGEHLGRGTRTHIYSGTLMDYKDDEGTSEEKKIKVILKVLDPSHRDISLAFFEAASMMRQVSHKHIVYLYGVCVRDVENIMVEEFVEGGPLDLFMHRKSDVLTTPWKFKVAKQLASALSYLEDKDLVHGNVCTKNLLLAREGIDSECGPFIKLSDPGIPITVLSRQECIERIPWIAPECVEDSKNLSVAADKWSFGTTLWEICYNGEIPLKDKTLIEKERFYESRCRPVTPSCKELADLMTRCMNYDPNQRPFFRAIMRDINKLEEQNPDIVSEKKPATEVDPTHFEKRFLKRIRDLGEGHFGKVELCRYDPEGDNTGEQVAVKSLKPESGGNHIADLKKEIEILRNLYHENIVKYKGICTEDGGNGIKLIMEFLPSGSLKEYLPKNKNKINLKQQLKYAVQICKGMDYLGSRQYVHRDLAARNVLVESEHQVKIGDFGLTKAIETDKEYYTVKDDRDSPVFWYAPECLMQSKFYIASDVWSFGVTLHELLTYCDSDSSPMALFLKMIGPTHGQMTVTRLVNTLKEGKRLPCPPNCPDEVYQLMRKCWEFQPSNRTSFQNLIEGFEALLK

[9] = molecular target: T2, Non-receptor tyrosine-protein kinase TYK2; test: Inhibition of TYK2 signalling pathway in human PBMC cells assessed as IFN alpha induced p-STAT1 level; assay type: cell-based
[10] = molecular target: T2, Non-receptor tyrosine-protein kinase TYK2; test: Inhibition of TYK2 signalling pathway in human PBMC cells assessed as IFN alpha induced p-STAT3 level; assay type: cell-based
[11] = Inhibition of JAK1 JH2 (unknown origin); design: species or system Homo sapiens
[12] = molecular target: T2, Non-receptor tyrosine-protein kinase TYK2; assay type: cell-based, Sf9; remark: listed apart in the source
[13] = molecular target: T1, Tyrosine-protein kinase JAK2
[14] = molecular target: T2, Non-receptor tyrosine-protein kinase TYK2; test: Inhibition of TYK2 JH2 in human KIT225 cells assessed as reduction of IFNalpha induced STAT1 phosphorylation by AlphaLISA assay; assay type: cell-based
[15] = Inhibition of PDE4 (unknown origin) by HTRF assay; design: species or system Homo sapiens
[16] = molecular target: T4, Tyrosine-protein kinase JAK1; remark: listed apart in the source
[17] = molecular target: T5, Inhibitor of nuclear factor kappa-B kinase subunit beta (Homo sapiens) (UniProt O14920); test: Inhibition of IKKbeta (unknown origin) at 1 uM relative to control
T5 sequence (whole entry): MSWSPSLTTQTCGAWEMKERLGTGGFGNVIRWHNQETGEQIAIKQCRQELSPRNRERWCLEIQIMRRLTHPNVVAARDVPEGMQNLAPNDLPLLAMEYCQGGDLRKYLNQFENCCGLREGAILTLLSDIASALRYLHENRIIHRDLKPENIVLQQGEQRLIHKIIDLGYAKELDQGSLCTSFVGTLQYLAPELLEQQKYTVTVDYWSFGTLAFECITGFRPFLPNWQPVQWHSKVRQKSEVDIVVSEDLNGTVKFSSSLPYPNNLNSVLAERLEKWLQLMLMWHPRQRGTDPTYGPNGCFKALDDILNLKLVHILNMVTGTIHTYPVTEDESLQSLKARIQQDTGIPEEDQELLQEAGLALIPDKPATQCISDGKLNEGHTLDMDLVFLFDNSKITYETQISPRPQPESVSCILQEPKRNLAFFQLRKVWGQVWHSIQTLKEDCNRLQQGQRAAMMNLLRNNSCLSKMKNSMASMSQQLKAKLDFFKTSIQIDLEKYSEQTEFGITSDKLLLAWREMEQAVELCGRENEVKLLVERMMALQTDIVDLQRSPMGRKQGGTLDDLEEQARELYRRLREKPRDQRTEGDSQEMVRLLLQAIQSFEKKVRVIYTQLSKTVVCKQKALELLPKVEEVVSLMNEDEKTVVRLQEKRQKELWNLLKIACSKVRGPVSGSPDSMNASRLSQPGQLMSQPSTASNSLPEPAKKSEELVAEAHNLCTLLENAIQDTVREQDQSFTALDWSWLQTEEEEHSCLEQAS

[18] = molecular target: T2, Non-receptor tyrosine-protein kinase TYK2; test: Inhibition of human recombinant N-terminal His-tagged TYK2 (575 to 869 residues) expressed in baculovirus infected Sf9 cells at 1 uM incubated for 30 mins by scintillation method

Tyrosine-protein kinase JAK2 (Homo sapiens, UniProt O60674, V617F), sequence (O60674 whole entry V617F): as the sequence (O60674 whole entry) above, with V617F counted along it

Compound: Nc1nc(CSc2nnc(NCC3CCCC3)s2)nc(Nc2ccc(F)cc2)n1
Kd [1]: 65000 nM
Kd [2]: 149000 nM

Compound: CNC(=O)c1nnc(NC(=O)C2CC2)c2[nH]c(-c3ccc(N)cc3OC)cc12
half-life [6]: > 2.32 h
IC50 [7]: > 30000 nM

Compound: O=C(Nc1c[nH]nc1-c1nc2cc(CN3CCOCC3)ccc2[nH]1)NC1CC1 [AT-9283]
IC50 [8]: 60 nM

Compound: CS(=O)(=O)N1CC[C@H](C#CC(=O)N2CCC[C@@H](c3ccc(Cl)c(Cl)c3)C2)C1
IC50 [9]: 32 nM
IC50 [10]: 46 nM

Compound: CC(C)CCN1c2nc(Nc3cc(F)c(O)c(F)c3)ncc2N(C)C(=O)C1(C)C
IC50 [11]: 123 nM

Compound: CC(C)CCN1c2nc(Nc3cc(F)c(O)c(F)c3)ncc2N(C)C(=O)C1C (stereo not drawn)
IC50 [11]: 658 nM

Compound: c1nc2nc(Nc3ccc(N4CCOCC4)cc3)nc(NC3CCCCC3)c2[nH]1 [REVERSINE]
IC50 [8]: 350 nM
IC50 [16]: 350 nM

Further lines, results first:

IC50 [3]: 0.3 nM
Compound: CNC(=O)c1cnc(Nc2ccc(C#N)cn2)cc1Nc1cccc(-c2ncn(C)n2)c1OC

IC50 [4]: 3 nM
solubility [5]: < 1 µg/mL
half-life [6]: > 2 h
Compound: [2H]C([2H])([2H])NC(=O)c1nnc(NC(=O)C2CC2)cc1Nc1cccc(-c2ncn(C)n2)c1OC [DEUCRAVACITINIB]

IC50 [12]: 50000 nM
IC50 [3]: 9700 nM
IC50 [13]: 14000 nM
Compound: O=c1cc(-c2ccccc2)nc2c(-c3cccc([N+](=O)[O-])c3)c(C(F)(F)F)[nH]n12

IC50 [14]: 37 nM
IC50 [15]: > 2000 nM
Compound: NC(=O)c1ccccc1Nc1cc(Nc2ccc(F)cn2)ncc1C(N)=O

IC50 [14]: 63 nM
Compound: CNC(=O)c1cnc(Nc2ccc(F)cn2)cc1Nc1ccccc1S(C)(=O)=O

inhibition [17]: > 96%
inhibition [18]: 99%
Compound: CNc1nc2sc(-c3cccc([C@@H](C)NC(=O)c4ccccc4S(C)(=O)=O)c3)nc2c2c1ncn2C
